Test system: human myeloma cell line MM.1S
Experiment: SILAC acetylated-lysine peptide profiling, HDAC inhibitor vs DMSO (light/heavy ratio)
Type: cell-based
Text: An embodiment of the invention comprises utilizing the SILAC method in order to quantitate changes in protein expression between two or more populations of cells. The SILAC method is a technique based on mass spectrometry that detects differences in protein abundance among samples using non-radioactive isotopic labeling. The SILAC method is known in the art, and described in detail in Ong et al., “Stable Isotope Labeling by Amino Acids in Cell Culture, SILAC, as a Simple and Accurate Approach to Expression Proteomics”, Molecular & Cellular Proteomics, vol. 1, pp. 376-386 (2002), which is incorporated herein by reference in its entirety.
Briefly, the SILAC method involves growing two populations of cells in cell culture. The first population of cells is grown in growth media containing normal amino acids (“normal media”). The second population of cells is grown in media lacking a standard essential amino acid (such as lysine), but is then supplemented with a non-radioactive, isotopically labeled form of that essential amino acid (such as lysine labeled with ^13C atoms, rather than normal ^12C atoms), which is called “heavy media”. When the two populations of cells are each growing in the medium, they incorporate the amino acids into all of their proteins. The growth of cells maintained in the heavy media is no different from that in normal media. All peptides containing the heavy amino acids are heavier than their normal counterparts. The cells from each of the two populations of cells are lysed. The lysates from each of the two cell populations are then combined. The combined cell lysates are then analyzed by mass spectrometry. Pairs of chemically identical peptides of different stable isotope composition can be differentiated in a mass spectrometer due to their difference in mass. The ratio of peak intensities in the mass spectrum for such peptide pairs reflects the abundance ratio for the two proteins.
This example describes SILAC studies that were performed to compare the effects of three different HDAC inhibitors (Compound A, Compound B, and tubastatin A) to a control on a human multiple myeloma cell line. The HDAC inhibitors were also compared amongst themselves to determine differences in their effects.
A human myeloma cell line MM.1S was grown using either ^12C (light) or ^13C (heavy) lysine containing culture medium. The “heavy” cells were treated with DMSO as the control, and the “light” cells were treated with a single HDAC inhibitor at 37° C. for 6 hours. The heavy and light cells were lysed, and the lysates were mixed in 1:1 ratio and digested with the protease trypsin. The acetylated lysine containing peptides (due to the action of the HDAC inhibitor) in the digested peptide pool were captured by a non-specific anti-acetylated lysine antibody cocktail (the antibodies identify both light and heavy acetylated peptides), and subjected to mass spectrometry analysis in order to identify thousands of individual peptides.
Thousands of peptides were identified in pairs (^12C and ^13C) due to their known mass differences. The amino acid sequence and quantitative ratio (Light/Heavy) of a given peptide in two differentially treated cell lysates were then determined and annotated with their possible protein (gene) sources.
As stated above, three HDAC inhibitors (Compound A, Compound B, and Tubastatin A) were used. Thus, the SILAC method was performed three times, with a different HDAC inhibitor compared to a control each time. Accordingly, there are three pairs of quantitative data in the table below, i.e., Compound A:DMSO, Compound B:DMSO, and Tubastatin A:DMSO. A cut-off of 1.30 fold of change (increase or decrease) was then used to determine “changed” or “+” in the table, and any peptides with a fold of change less than 1.3 fold were determined to be “unchanged” or “0” in the table. Those peptides that were not identified were marked as “NA” in the table. […]

O=C(CCCCCCNC(=O)c1cnc(N(c2ccccc2)c2ccccc2)nc1)NO [Compound A, 2-(diphenylamino)-N-(7-(hydroxyamino)-7-oxoheptyl)pyrimidine-5-carboxamide]
L/H ratio of acetylated peptide SELK(ac)HAK (SEQ ID NO: 696, Isoform Long of Delta-1-pyrroline-5-carboxylate synthase [68], ALDH18A1): 0.66 log 2
L/H ratio of acetylated peptide SCGLNPK(ac)LEK (SEQ ID NO: 697, Isoform 5 of Transcriptional regulator ATRX [468], ATRX): 0.66 log 2
L/H ratio of acetylated peptide EVK(ac)VLLDQLR (SEQ ID NO: 698, Isoform 1 of Adipocyte plasma membrane-associated protein [250], C20orf3): 0.67 log 2
L/H ratio of acetylated peptide KAVTK(ac)VQK (SEQ ID NO: 699, Histone H2B type 2-F [21], HIST2H2BF): 0.67 log 2
L/H ratio of acetylated peptide ILQK(ac)QGFK (SEQ ID NO: 700, Dihydrolipoyl dehydrogenase mitochondrial [267], DLD): 0.67 log 2
L/H ratio of acetylated peptide NK(ac)FGAPQK (SEQ ID NO: 701, Trifunctional enzyme subunit alpha mitochondrial [353], HADHA): 0.68 log 2
L/H ratio of acetylated peptide VTAVHK(ac)ANIMK (SEQ ID NO: 702, Isocitrate dehydrogenase [NAD] subunit gamma mitochondrial [221], IDH3G): 0.68 log 2
L/H ratio of acetylated peptide ACPEK(ac)HFAFK (SEQ ID NO: 703, Protein FAM3C [67], FAM3C): 0.68 log 2
L/H ratio of acetylated peptide KPTLDK(ac)PSPETFVK (SEQ ID NO: 704, Estradiol 17-beta-dehydrogenase 12 [249], HSD17B12): 0.68 log 2
L/H ratio of acetylated peptide QLAQK(ac)YNCDK (SEQ ID NO: 705, Ubiquitin-60S ribosomal protein L40 [88], UBA52): 0.68 log 2
L/H ratio of acetylated peptide […](ac)EDVK (SEQ ID NO: 706, Isoform 1 of ATP synthase subunit d mitochondrial [95], ATP5H): 0.68 log 2
L/H ratio of acetylated peptide […](ac)TLSK (SEQ ID NO: 707, Isoform 2 of PDZ domain-containing protein 2 [1726], PDZD2): 0.69 log 2
L/H ratio of acetylated peptide ADK(ac)LAEEHSS (SEQ ID NO: 708, ATP synthase subunit beta mitochondrial [522], ATP5B): 0.70 log 2
L/H ratio of acetylated peptide DFGSFDK(ac)FK (SEQ ID NO: 709, Superoxide dismutase [Mn] mitochondrial [130], SOD2): 0.70 log 2
L/H ratio of acetylated peptide KIDK(ac)YTEVLK (SEQ ID NO: 710, 60S ribosomal protein L13a [191], SNORD32A, RPL13A, SNORD33, SNORD34): 0.70 log 2
L/H ratio of acetylated peptide CSK(ac)LPSSTK(ac)SGWPR (SEQ ID NO: 711, cDNA FLJ75110 highly similar to Homo sapiens PHD finger protein 15 (PHF15) mRNA 3[2:38], PHF15): 0.70 log 2
L/H ratio of acetylated peptide KAINK(ac)AQK (SEQ ID NO: 712, Histone H2B type 1-M [21], HIST1H2BM): 0.70 log 2
L/H ratio of acetylated peptide EFPEK(ac)QELHR (SEQ ID NO: 713, Protein zer-1 homolog [584], ZER1): 0.70 log 2
L/H ratio of acetylated peptide TDLEK(ac)[…] (SEQ ID NO: 714, Putative annexin A2-like protein [157], ANXA2P2): 0.71 log 2
L/H ratio of acetylated peptide […](ac)ASMK (SEQ ID NO: 715, Putative annexin A2-like protein [115], ANXA2P2): 0.72 log 2
L/H ratio of acetylated peptide LTCYLCK(ac)QK (SEQ ID NO: 716, Isoform 1 of Bromodomain-containing protein 1 [33]1, BRD1): 0.72 log 2
L/H ratio of acetylated peptide AINK(ac)AQK(ac)K (SEQ ID NO: 717, Histone H2B type 1-M [21:24], HIST1H2BM): 0.72 log 2
L/H ratio of acetylated peptide KGIEK(ac)NLGIGK (SEQ ID NO: 718, Malate dehydrogenase mitochondrial [301], MDH2): 0.72 log 2
L/H ratio of acetylated peptide DNGK(ac)[…] (SEQ ID NO: 719, ATP synthase subunit alpha mitochondrial [305], ATP5A1): 0.72 log 2
L/H ratio of acetylated peptide QLYNIYAK(ac)HTK (SEQ ID NO: 720, Putative ATP-dependent Clp protease proteolytic subunit mitochondrial [211], CLPP): 0.72 log 2
L/H ratio of acetylated peptide GKGDK(ac)AQIEK (SEQ ID NO: 721, 60 kDa heat shock protein mitochondrial [364], HSPD1): 0.73 log 2
L/H ratio of acetylated peptide K(ac)FLVHNVK (SEQ ID NO: 722, 60S ribosomal protein L32 [76], RPL32): 0.73 log 2
L/H ratio of acetylated peptide GLIK(ac)LVSK (SEQ ID NO: 723, 40S ribosomal protein S25 [98], RPS25): 0.73 log 2
L/H ratio of acetylated peptide IGFAEK(ac)VAAK (SEQ ID NO: 724, Isoform Mitochondrial of Fumarate hydratase mitochondrial [292], FH): 0.73 log 2
L/H ratio of acetylated peptide (ac)AEK(ac)FDCHYCR (SEQ ID NO: 725, four and a half LIM domains protein 1 isoform 5 [20], FHL1): 0.73 log 2
L/H ratio of acetylated peptide […](ac)VIPK (SEQ ID NO: 726, Endoplasmic reticulum resident protein 29 [48], ERP29): 0.73 log 2
L/H ratio of acetylated peptide […](ac)SVAR (SEQ ID NO: 727, 60S ribosomal protein L7a [245], RPL7A, SNORD24): 0.73 log 2
L/H ratio of acetylated peptide TITMK(ac)QLLR (SEQ ID NO: 728, Branched-chain-amino-acid aminotransferase [281], BCAT2): 0.73 log 2
L/H ratio of acetylated peptide SK(ac)FVLVK (SEQ ID NO: 729, Endoplasmic reticulum resident protein 29 [54], ERP29): 0.74 log 2
L/H ratio of acetylated peptide LVEDTK(ac)HRPK (SEQ ID NO: 730, 39S ribosomal protein L9 mitochondrial [87], MRPL9): 0.74 log 2

Source: patent publication US20140357512A1, “HISTONE DEACETYLASE (HDAC) BIOMARKERS IN MULTIPLE MYELOMA” (priority 2013, published 2014)
